Measurements: patent US6737383B1, “Herbicidal oxadiazolidines” (priority 1999, dated 2004)

Key:
[1] = system: giant foxtail; assay: Test B pre/postemergence giant foxtail; assay type: in vivo, Setaria faberii
In short: (§1)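 Herbicidal effect was estimated by eye on a ten-point control scale after plants spent twelve to sixteen days in a greenhouse following soil or foliar treatment. Foliar sprays targeted plants at one to four leaves; all doses were formulated in a non-phytotoxic solvent with surfactant.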

[2] = system: morningglory; assay: Test B pre/postemergence morningglory; assay type: in vivo, Ipomoea hederacea
In short: as §1

[3] = system: pigweed; assay: Test B pre/postemergence pigweed; assay type: in vivo, Amaranthus retroflexus
In short: as §1

[4] = system: winter wheat; assay: Test E winter wheat; assay type: in vivo, Triticum aestivum; conditions: Postemergence; for Plant response rating, Wheat (winter): 0 to 100 scale; for Wheat (winter) plant response rating: Rate 250 g/ha, 0 to 100 scale where 0 is no effect and 100 is complete control
In short: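 Greenhouse test: compounds in non-phytotoxic solvent with surfactant; for postemergence, sprayed on plants at 1- to 4-leaf stage grown in 60:40 sandy loam/potting mix. Injury rated visually against untreated controls after about 21 to 28 days.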

[5] = system: blackgrass; assay: Test E blackgrass; assay type: in vivo, Alopecurus myosuroides; conditions: Preemergence; for Blackgrass plant response rating (0 to 100 scale): Rate 250 g/ha
[6] = system: green foxtail; assay: Test E green foxtail; assay type: in vivo, Setaria viridis; conditions: Preemergence; for Green foxtail plant response rating (0 to 100 scale): Rate 250 g/ha
[7] = system: Italian ryegrass; assay: Test E Italian ryegrass; assay type: in vivo, Lolium multiflorum; conditions: Preemergence; for I. Ryegrass plant response rating (0 to 100 scale): Rate 250 g/ha
[8] = system: winter wheat; assay: Test E winter wheat; assay type: in vivo, Triticum aestivum; conditions: Preemergence; for Wheat (winter) plant response rating (0 to 100 scale): Rate 250 g/ha
[9] = system: wild oat; assay: Test E wild oat; assay type: in vivo, Avena fatua; conditions: Preemergence; for Wild oat plant response rating (0 to 100 scale): Rate 250 g/ha
[10] = system: winter barley; assay: Test E winter barley; assay type: in vivo, Hordeum vulgare; conditions: Preemergence; for Barley (winter) plant response rating (0 to 100 scale): Rate 250 g/ha
[11] = Preemergence, Rate 62 g/ha, scale of 0 to 10 where 0 is no effect and 10 is complete control
[12] = Preemergence, Rate 250 g/ha, scale of 0 to 10 where 0 is no effect and 10 is complete control
[13] = Preemergence, Rate 500 g/ha, scale of 0 to 10 where 0 is no effect and 10 is complete control
[14] = Rate 62 g/ha, Postemergence, scale of 0 to 10 where 0 is no effect and 10 is complete control
[15] = Rate 125 g/ha, Preemergence, scale of 0 to 10 where 0 is no effect and 10 is complete control
[16] = Rate 500 g/ha, Postemergence, scale 0 to 10, 0 no effect, 10 complete control
[17] = Rate 125 g/ha, 0 is no effect, 100 is complete control
[18] = Rate 500 g/ha, 0 is no effect, 100 is complete control
[19] = Rate 125 g/ha, 0 to 100 scale (0 no effect, 100 complete control)
[20] = Rate 500 g/ha, 0 to 100 scale where 0 is no effect and 100 is complete control
[21] = Preemergence, Rate 125 g/ha, 0 is no effect, 10 is complete control
[22] = Preemergence, Rate 250 g/ha, scale 0 to 10, 0 is no effect, 10 is complete control
[23] = Preemergence, Rate 500 g/ha, scale 0 to 10 (0 no effect, 10 complete control)
[24] = Rate 125 g/ha, Postemergence, scale 0 to 10
[25] = Rate 500 g/ha, Postemergence, scale 0 to 10

CC(C)N(C(=O)n1oc(=O)n(C2CC2)c1=O)c1ccc(Cl)cc1 [Compound 241]
Giant foxtail plant response rating [1, 11]: 10 | Giant foxtail plant response rating [1, 12]: 10 | Plant response rating, Giant foxtail [1, 13]: 10 | Giant foxtail plant response rating [1, 14]: 2 | Giant foxtail plant response rating [1, 15]: 10 | Plant response rating (0 to 10; 0 is no effect, 10 is complete control), Giant foxtail ([1]; Rate 250 g/ha, Postemergence): 6 | Giant foxtail plant response rating [1, 16]: 8 | Morningglory plant response rating [2, 11]: 0 | Morningglory plant response rating [2, 12]: 3 | Plant response rating, Morningglory [2, 13]: 5 | Morningglory plant response rating [2, 14]: 3 | Morningglory plant response rating [2, 15]: 0 | Plant response rating (0 to 10; 0 is no effect, 10 is complete control), Morningglory ([2]; Rate 250 g/ha, Postemergence): 5 | Morningglory plant response rating [2, 16]: 8 | Redroot pigweed plant response rating [3, 11]: 0 | Redroot pigweed plant response rating [3, 12]: 9 | Plant response rating, Redroot pigweed [3, 13]: 10 | Redroot pigweed plant response rating [3, 14]: 0 | Redroot pigweed plant response rating [3, 15]: 0 | Plant response rating (0 to 10; 0 is no effect, 10 is complete control), Redroot pigweed ([3]; Rate 250 g/ha, Postemergence): 0 | Redroot pigweed plant response rating [3, 16]: 7 | Plant response rating, Wheat (winter) [4, 17]: 20 | Wheat (winter) plant response rating [4]: 60 | Plant response rating, Wheat (winter) [4, 18]: 50 | Plant response rating, Blackgrass [5, 19]: 60 | Blackgrass plant response rating (0 to 100 scale) [5]: 100 | Plant response rating, Blackgrass [5, 20]: 98 | Plant response rating, Green foxtail [6, 19]: 65 | Green foxtail plant response rating (0 to 100 scale) [6]: 90 | Plant response rating, Green foxtail [6, 20]: 90 | Plant response rating, I. Ryegrass [7, 19]: 60 | I. Ryegrass plant response rating (0 to 100 scale) [7]: 70 | Plant response rating, I. Ryegrass [7, 20]: 100 | Plant response rating, Wheat (winter) [8, 19]: 40 | Wheat (winter) plant response rating (0 to 100 scale) [8]: 50 | Plant response rating, Wheat (winter) [8, 20]: 60 | Plant response rating, Wild oat [9, 19]: 50 | Wild oat plant response rating (0 to 100 scale) [9]: 60 | Plant response rating, Wild oat [9, 20]: 55 | Plant response rating, Barley (winter) [10, 19]: 40 | Barley (winter) plant response rating (0 to 100 scale) [10]: 50 | Plant response rating, Barley (winter) [10, 20]: 60

Cc1nc(C)c(Cn2c(=O)on(C(=O)N(c3ccc(Cl)cc3)C(C)C)c2=O)s1 [Compound 191]
Giant foxtail plant response rating [1, 11]: 3 | Giant foxtail plant response rating (0 to 10 scale) [1, 21]: 8 | Giant foxtail plant response rating [1, 22]: 9 | Giant foxtail plant response rating [1, 23]: 10 | Giant foxtail plant response rating [1, 14]: 0 | Giant foxtail plant response rating [1, 24]: 0 | Plant response rating (0 to 10; 0 is no effect, 10 is complete control), Giant foxtail ([1]; Rate 250 g/ha, Postemergence): 0 | Giant foxtail plant response rating [1, 25]: 2 | Morningglory plant response rating [2, 11]: 0 | Morningglory plant response rating [2, 22]: 0 | Morningglory plant response rating [2, 23]: 0 | Morningglory plant response rating [2, 14]: 1 | Morningglory plant response rating [2, 24]: 2 | Plant response rating (0 to 10; 0 is no effect, 10 is complete control), Morningglory ([2]; Rate 250 g/ha, Postemergence): 2 | Morningglory plant response rating [2, 25]: 8 | Redroot pigweed plant response rating [3, 11]: 0 | Redroot pigweed plant response rating (0 to 10 scale) [3, 21]: 0 | Redroot pigweed plant response rating [3, 22]: 1 | Redroot pigweed plant response rating [3, 23]: 6 | Redroot pigweed plant response rating [3, 14]: 0 | Redroot pigweed plant response rating [3, 24]: 0 | Plant response rating (0 to 10; 0 is no effect, 10 is complete control), Redroot pigweed ([3]; Rate 250 g/ha, Postemergence): 0 | Redroot pigweed plant response rating [3, 25]: 0 | Plant response rating, Wheat (winter) ([4]; Rate 125 g/ha): 30 | Plant response rating, Wheat (winter) [4, 18]: 60 | Plant response rating, Blackgrass [5, 19]: 10 | Blackgrass plant response rating (0 to 100 scale) [5]: 20 | Plant response rating, Blackgrass [5, 20]: 30 | Plant response rating, Green foxtail [6, 19]: 30 | Green foxtail plant response rating (0 to 100 scale) [6]: 40 | Plant response rating, Green foxtail [6, 20]: 50 | Plant response rating, I. Ryegrass [7, 19]: 0 | I. Ryegrass plant response rating (0 to 100 scale) [7]: 0 | Plant response rating, I. Ryegrass [7, 20]: 30 | Plant response rating, Wheat (winter) [8, 19]: 10 | Wheat (winter) plant response rating (0 to 100 scale) [8]: 30 | Plant response rating, Wheat (winter) [8, 20]: 50 | Plant response rating, Wild oat [9, 19]: 30 | Wild oat plant response rating (0 to 100 scale) [9]: 40 | Plant response rating, Wild oat [9, 20]: 50 | Plant response rating, Barley (winter) [10, 19]: 10 | Barley (winter) plant response rating (0 to 100 scale) [10]: 30 | Plant response rating, Barley (winter) [10, 20]: 20

CC(C)N(C(=O)n1oc(=O)n(CCC(F)=C(F)F)c1=O)c1ccc(F)cc1 [Compound 218]
Giant foxtail plant response rating [1, 11]: 9 | Giant foxtail plant response rating [1, 12]: 10 | Plant response rating, Giant foxtail [1, 13]: 10 | Giant foxtail plant response rating [1, 14]: 1 | Giant foxtail plant response rating [1, 24]: 5 | Giant foxtail plant response rating [1, 15]: 9 | Plant response rating (0 to 10; 0 is no effect, 10 is complete control), Giant foxtail ([1]; Rate 250 g/ha, Postemergence): 7 | Giant foxtail plant response rating [1, 25]: 8 | Morningglory plant response rating [2, 11]: 0 | Morningglory plant response rating [2, 12]: 0 | Plant response rating, Morningglory [2, 13]: 0 | Morningglory plant response rating [2, 14]: 3 | Morningglory plant response rating [2, 24]: 4 | Morningglory plant response rating [2, 15]: 0 | Plant response rating (0 to 10; 0 is no effect, 10 is complete control), Morningglory ([2]; Rate 250 g/ha, Postemergence): 8 | Morningglory plant response rating [2, 25]: 9 | Redroot pigweed plant response rating [3, 11]: 6 | Redroot pigweed plant response rating [3, 12]: 8 | Plant response rating, Redroot pigweed [3, 13]: 10 | Redroot pigweed plant response rating [3, 14]: 0 | Redroot pigweed plant response rating [3, 24]: 1 | Redroot pigweed plant response rating [3, 15]: 1 | Plant response rating (0 to 10; 0 is no effect, 10 is complete control), Redroot pigweed ([3]; Rate 250 g/ha, Postemergence): 3 | Redroot pigweed plant response rating [3, 25]: 7 | Plant response rating, Wheat (winter) [4, 17]: 65 | Wheat (winter) plant response rating [4]: 70 | Plant response rating, Wheat (winter) [4, 18]: 85 | Plant response rating, Blackgrass [5, 19]: 65 | Blackgrass plant response rating (0 to 100 scale) [5]: 70 | Plant response rating, Blackgrass [5, 20]: 100 | Plant response rating, Green foxtail [6, 19]: 30 | Green foxtail plant response rating (0 to 100 scale) [6]: 55 | Plant response rating, Green foxtail [6, 20]: 85 | Plant response rating, I. Ryegrass [7, 19]: 55 | I. Ryegrass plant response rating (0 to 100 scale) [7]: 60 | Plant response rating, I. Ryegrass [7, 20]: 70 | Plant response rating, Wheat (winter) [8, 19]: 50 | Wheat (winter) plant response rating (0 to 100 scale) [8]: 40 | Plant response rating, Wheat (winter) [8, 20]: 50 | Plant response rating, Wild oat [9, 19]: 70 | Wild oat plant response rating (0 to 100 scale) [9]: 65 | Plant response rating, Wild oat [9, 20]: 70 | Plant response rating, Barley (winter) [10, 19]: 40 | Barley (winter) plant response rating (0 to 100 scale) [10]: 50 | Plant response rating, Barley (winter) [10, 20]: 65
